Results reported in patent US20080226698A1 (priority 2007, published 2008).

Compound | Glass transition temperature of the amorphous form (DSC) | Tg of the amorphous form relative to normal storage temperature (normal storage temperature of 20° C. to 25° C.)
CCN(CC)CC#CCOC(=O)C(O)(c1ccccc1)C1CCCCC1 (centres unmarked) [oxybutynin base, oxybutynin] | about −20 °C | –
CN1[C@@H]2C[C@@H](OC(=O)[C@H](CO)c3ccccc3)C[C@H]1[C@@H]1O[C@@H]12 [scopolamine] | – | lower than the normal storage temperature
